Tests used:
[1] = system: MDA-MB-435; details: MDA-MB-435, 48 h
[2] = system: MOLT-4; assay: cells; details: Homo sapiens, MOLT-4, 48 h; for CC50: read-out: LC50, MOLT-4, 48 h
[3] = system: MDA-MB-231; assay: [3H]-thymidine incorporation assay; assay type: cell-based; details: Homo sapiens; MDA-MB-231, 24 h of treatment
Description: (§1) Another method of assessing the cytotoxic effects of tested compounds, [^3H]-thymidine incorporation assay, was applied. This method provided the capability to analyze the antiproliferative activity of novel structures on MCF-7 and MDA-MB-231 through their ability to incorporate thymidine into the cells. The acquired results further confirmed the potent activity of the 14b compound as the most prominent structure among the novel compounds (Table 2). The test was carried out in triplicate at concentrations of 5, 15, and 30 μM for the MDA-MB-231 cell line and 1, 5, and 10 μM for the MCF-7 cell line.
(§2) Following the selection of cell lines for further study, the effects of all compounds on cell proliferation were evaluated on MCF-7 and MDA-MB-231 cell lines. Cells were seeded in 24-well plates and cultured as described above. Cells were treated with the compounds at concentrations 1, 5, and 10 μM, and 5, 15, and 30 μM for MCF-7 and MDA-MB-231 cell lines, respectively, for 24 h. Subsequently, 0.5 μCi [^3H]-thymidine was added for 4 h at 37 °C. Then, plates with cells were placed on the ice, the liquid was aspirated, and cells were washed twice with 1mL of 0.05 M Tris-HCl buffer comprising 0.11 M NaCl and precipitated by adding 1 mL per well of 5% trichloroacetic. After precipitation, the cells were dissolved with 1 mL of 0.1 M NaOH with 1% SDS (Sigma-Aldrich, St. Louis, MO, USA) at room temperature (RT). The cell lysates were transferred into scintillation vials containing 2 mL of scintillation fluid (Ultima Gold™ XR, PerkinElmer, MA, USA), and cell-associated radioactivity was measured using a Scintillation Counter 1900 TR, TRI-CARB (Packard, Perkin Elmer, Inc., San Jose, CA, USA). The [^3H]-thymidine uptake was expressed as a percentage of the control value.

[4] = system: MCF-7; assay: [3H]-thymidine incorporation assay; assay type: cell-based; details: Homo sapiens, MCF7; MCF-7, 24 h of treatment
Description: as §1, §2

[5] = system: HCC-2998; details: HCC-2998, 48 h
[6] = system: UO-31; details: UO-31, 48 h
[7] = system: MDA-MB-435; assay: cells; details: Homo sapiens, MDA-MB-435, 48 h; for CC50: read-out: LC50, MDA-MB-435, 48 h
[8] = system: TK-10; assay: cells; details: Homo sapiens, TK-10, 48 h; for CC50: read-out: LC50, TK-10, 48 h
[9] = system: Breast cancer; assay: cells; details: Homo sapiens; for GI50: read-out: MG_MID GI50; for CC50: read-out: MG_MID LC50
[10] = system: Non-small cell lung cancer; details: Non-small cell lung cancer subpanel
[11] = system: NCI-H266; assay: NCI-60 SRB screen; details: for GI50 / CC50: Homo sapiens, 48 h; for GI50 / TGI: NCI-H266, 48 h; for CC50: read-out: LC50, NCI-H266, 48 h
[12] = system: Melanoma; assay: cells; details: Homo sapiens; for GI50: read-out: MG_MID GI50; for CC50: read-out: MG_MID LC50
[13] = system: OVCAR-4; details: OVCAR-4, 48 h
[14] = system: K-562; details: K-562, 48 h
[15] = system: PC-3; assay: cells; details: Homo sapiens, PC-3, 48 h
[16] = system: Renal Cancer; details: Renal Cancer subpanel
[17] = system: MALME-3M; assay: NCI-60 SRB screen; details: 48 h; for GI50 / CC50: Homo sapiens, Malme-3M; for CC50: read-out: LC50, MALME-3M, 48 h; for TGI: MALME-3M
[18] = system: T-47D; assay: cells; details: Homo sapiens, T47D, 48 h; for GI50: T-47D
[19] = system: OVCAR-8; details: OVCAR-8, 48 h
[20] = system: SF-268; details: SF-268, 48 h
[21] = system: RPMI-8226; assay: cells; details: Homo sapiens, RPMI-8226, 48 h; for CC50: read-out: LC50
[22] = system: SK-MEL-28; details: SK-MEL-28, 48 h
[23] = system: CCRF-CEM; assay: cells; details: Homo sapiens, 48 h
[24] = system: OVCAR-5; assay: NCI-60 SRB screen; details: OVCAR-5, 48 h; for GI50: Homo sapiens
[25] = system: CAKI-1; details: CAKI-1, 48 h
[26] = system: NCI/ADR-RES; details: 48 h
[27] = system: SK-MEL-5; assay: cells; details: Homo sapiens, SK-MEL-5, 48 h; for CC50: read-out: LC50, SK-MEL-5, 48 h
[28] = system: Leukemia; assay: cells; details: Homo sapiens; for GI50: read-out: MG_MID GI50; for CC50: read-out: MG_MID LC50
[29] = system: UO-31; assay: cells; details: Homo sapiens, UO-31, 48 h; for CC50: read-out: LC50, UO-31, 48 h
[30] = system: UACC-257; details: UACC-257, 48 h

O=C(O)C(c1ccccc1)N1C(=O)/C(=C/C=C/c2ccc([N+](=O)[O-])o2)SC1=S (centres unmarked) [9b, 2-((Z)-5-((E)-3-(5-Nitrofuran-2-yl)allylidene)-4-oxo-2-thioxothiazolidin-3-yl)-2-phenylacetic acid]
TGI [1]: 13.0 µM
GI50 [2]: 12.1 µM
CC50 [2]: > 100 µM
IC50 [3]: 7.53 µM
IC50 [4]: 7.98 µM
TGI [5]: 29.9 µM
TGI [6]: 23.4 µM
GI50 [7]: 3.04 µM
CC50 [7]: 40.6 µM
GI50 [8]: 16.1 µM
CC50 [8]: 55.9 µM
GI50 [9]: 5.89 µM
CC50 [9]: 49.4 µM
MG_MID TGI [10]: 31.8 µM
GI50 [11]: 12.2 µM
CC50 [11]: 89.7 µM
TGI [11]: 33.1 µM
GI50 [12]: 7.49 µM
CC50 [12]: 48.9 µM
TGI [13]: 28.0 µM
TGI [14]: 19.3 µM
GI50 [15]: 13.5 µM
MG_MID TGI [16]: 22.1 µM
GI50 [17]: 5.4 µM
CC50 [17]: 48.8 µM
TGI [17]: 18.7 µM
GI50 [18]: 11.1 µM
CC50 ([18]; read-out: LC50): > 100 µM
TGI [19]: 25.5 µM
TGI [20]: 23.7 µM
GI50 [21]: 3.19 µM
CC50 [21]: > 100 µM
TGI [22]: 23.4 µM
GI50 [23]: 3.12 µM
GI50 [24]: 12.7 µM
TGI [24]: 25.8 µM
TGI [25]: 19.7 µM
TGI [26]: 33.9 µM
GI50 [27]: 3.38 µM
CC50 [27]: 38.8 µM
GI50 [28]: 6.64 µM
CC50 [28]: > 100 µM
GI50 [29]: 10.8 µM
CC50 [29]: 50.7 µM
TGI [30]: 27.2 µM

CCCCC(C(=O)O)N1C(=O)/C(=C/C=C/c2ccc([N+](=O)[O-])o2)SC1=S (centres unmarked) [6b, 2-((Z)-5-((E)-3-(5-nitrofuran-2-yl)allylidene)-4-oxo-2-thioxothiazolidin-3-yl)hexanoic acid]
TGI [1]: 3.95 µM
GI50 [2]: 3.28 µM
CC50 [2]: 90.2 µM
IC50 [3]: 2.01 µM
IC50 [4]: 5.81 µM
TGI [5]: 3.34 µM
TGI [6]: 3.29 µM
GI50 [7]: 1.81 µM
CC50 [7]: 6.61 µM
GI50 [8]: 3.13 µM
CC50 [8]: 28.3 µM
GI50 [9]: 2.03 µM
CC50 [9]: 26.7 µM
MG_MID TGI [10]: 6.45 µM
GI50 [11]: 2.22 µM
CC50 [11]: 76.1 µM
TGI [11]: 5.84 µM
GI50 [12]: 1.78 µM
CC50 [12]: 7.07 µM
TGI [13]: 19.0 µM
TGI [14]: 10.5 µM
GI50 [15]: 3.05 µM
MG_MID TGI [16]: 5.37 µM
GI50 [17]: 2.21 µM
CC50 [17]: 9.02 µM
TGI [17]: 4.47 µM
GI50 [18]: 1.75 µM
TGI [19]: 4.86 µM
TGI [20]: 5.24 µM
GI50 [21]: 1.78 µM
CC50 [21]: > 100 µM
TGI [22]: 3.73 µM
GI50 [23]: 3.1 µM
GI50 [24]: 2.08 µM
TGI [24]: 4.62 µM
TGI [25]: 3.29 µM
TGI [26]: 5.61 µM
GI50 [27]: 1.45 µM
CC50 [27]: 5.29 µM
GI50 [28]: 2.57 µM
CC50 [28]: 98.4 µM
GI50 [29]: 1.67 µM
CC50 [29]: 6.5 µM
TGI [30]: 4.31 µM

From publication PMC12655351, “Synthesis and Anticancer Activity Evaluation of New 5-((5-Nitrofuran-2-yl)allylidene)-2-thioxo-4-thiazolidinones” (Pharmaceuticals, 2025)
